Assay results taken from patent US20220387608A1, “ADRENOMEDULLIN-ANALOGUES FOR LONG-TERM STABILIZATION AND THEIR USE” (Bayer Aktiengesellschaft, priority 2019, published 2022).
Positions of bridges follow the written chain, without caps; N, C: chain ends. Non-standard residues stand in square brackets, D forms with d. Residues, ends and D or L forms follow the SMILES beside them. *: point of attachment. C18 diacid = O=C(O)CCCCCCCCCCCCCCCCC(=O)*; PEG5 = NCCOCCOCCOCCOCCOCCC(=O)O; PEG4 = NCCOCCOCCOCCOCCC(=O)O; AEEEA = NCCOCCOCCOCC(=O)O; PEG3 = NCCOCCOCCOCCC(=O)O

Biological target: T1, AM1R (Homo sapiens, UniProt O60895+Q16602)
T1 construct: EYFP; ECFP; expressed in transfected cells; host or cells: HEK-293 (transient co-transfection)
Assay: Activity determination in vitro: cAMP/CRE-luciferase reporter assay in HEK293 cells transiently co-transfected with CLR and RAMP2
Assay type: cell-based
Conditions: for Emax: HEK293, normalized to [G14]ADM(14-52); for EC50: HEK293 with CLR/RAMP2, CRE-luciferase, 3 h stimulation
Description: (1a) Activity Determination of Adrenomedullin Analogues in vitro
Cell Culture HEK-293 cells (human embryonic kidney cells) were cultured in Ham's F-12/DMEM (1/1; v/v) containing 15% FCS under humidified atmosphere at 37° C. and 5% CO2 in 75 cm^2 cell culture flasks.
Cells were cultured in 75 cm^2 flasks to 70-80% confluency. 45 μl Metafectene® Pro was diluted in 900 ρl Ham's F-12/DMEM (1/1; v/v) and incubated for 20 min at room temperature. 9 μg plasmid containing DNA of CLR fused to EYFP and 3 μg plasmid containing DNA of RAMP2 fused to ECFP were dissolved in 900 μl Ham's F-12/DMEM (1/1; v/v). The plasmid solution was mixed with the Metafectene® Pro solution and incubated for 25 min at room temperature. Medium was removed from the cells and replaced by 6 m1 Ham's F-12/DMEM (1/1; v/v) containing 15% FCS. After addition of transfection solution the cells were incubated for 3 h under humidified atmosphere at 37° C. and 5% CO2. For the second transfection 45 μl Metafectene® Pro was diluted in 900 μl Ham's F-12/DMEM (1/1; v/v) and incubated for 20 min at room temperature. 12 μg of pGL4.29[Luc2P/CRE/Hygro] plasmid containing DNA for the luciferase reporter gene luc2P (with CRE promotor region) were dissolved in 900 μl Ham's F-12/DMEM (1/1; v/v). The plasmid solution was mixed with the Metafectene® Pro solution and incubated for 25 min at room temperature. Medium was removed from the cells and replaced by 6 m1 Ham's F-12/DMEM (1/1; v/v) containing 15% FCS. After addition of transfection solution, the cells were incubated under humidified atmosphere at 37° C. and 5% CO2 over night.
For coating of 96-well-plates, 50 μl of a poly-D-lysine solution in DPBS (0.1 mg/ml) were pipetted in each well and incubated for 40 min. After removal of poly-D-lysine, each well was washed with 50 μl DPBS. Transiently transfected cells were detached from the cell culture flask by removal of the medium, 2-fold washing with 5 m1 DPBS and resuspending in 40 m1 Ham's F-12/DMEM (1/1; v/v) containing 15% FCS. 90,000 to 120,000 cells in 150 μl Ham's F-12/DMEM (1/1; v/v) containing 15% FCS were seeded per well and the plates were incubated under humidified atmosphere at 37° C. and 5% CO2 over night.
For each ligand, a serial dilution with eight different concentrations was prepared using Ham's F^12/DMEM (1/1; v/v). Before stimulation, the medium on the cells was replaced by 100 μl Ham's F^12/DMEM (1/1; v/v) and the plates were incubated for 1 h under humidified atmosphere at 37° C. and 5% CO2. For stimulation, the medium was removed and the cells were incubated for 3 h in 80 μl of ligand-solution under humidified atmosphere at 37° C. and 5% CO2. In addition 80 μl of a 5 μM forskolin solution in Ham's F-12/DMEM (1/1; v/v) was used as a positive control and 80 μl of Ham's F-12/DMEM (1/1; v/v) as a negative control. Each concentration and the controls were tested as triplicates.
After 3 h of stimulation, the solutions were removed and the cells were washed with 50 μl of Ham's F-12/DMEM (1/1; v/v) perwell. After 10 m incubation in 30 μl of Ham's F-12/DMEM (1/1; v/v) at room temperature, 30 μl of luciferase-solution (ONE-Glo™ Luciferase Assay System) was added and the luminescence was directly measured using an Infinite M200 (Tecan).
Data analysis of the luminescence measurement was carried out with GraphPad Prism 5. Therefore, the measured luminescence values of each plate were first corrected on the base of the respective average of forskolin stimulation. Afterwards they were normalized to [G14]ADM(14-52), which was used as standard peptide in every assay. After correction and normalization, data was analyzed using non-linear regression giving dose-response curves for each tested ligand.

T1 sequence (Q16602 23-461): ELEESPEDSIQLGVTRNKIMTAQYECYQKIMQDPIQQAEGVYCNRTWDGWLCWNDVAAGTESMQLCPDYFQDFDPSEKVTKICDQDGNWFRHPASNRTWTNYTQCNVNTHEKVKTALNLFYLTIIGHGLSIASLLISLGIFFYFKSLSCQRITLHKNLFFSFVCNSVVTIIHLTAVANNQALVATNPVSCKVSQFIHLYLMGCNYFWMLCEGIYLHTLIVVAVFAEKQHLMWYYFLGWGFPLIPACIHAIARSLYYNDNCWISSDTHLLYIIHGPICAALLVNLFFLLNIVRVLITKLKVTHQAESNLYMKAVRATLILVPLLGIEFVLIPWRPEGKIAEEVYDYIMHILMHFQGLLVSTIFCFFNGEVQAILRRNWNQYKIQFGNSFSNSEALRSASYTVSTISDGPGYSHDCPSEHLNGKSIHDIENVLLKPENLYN
T1 sequence (O60895 43-175): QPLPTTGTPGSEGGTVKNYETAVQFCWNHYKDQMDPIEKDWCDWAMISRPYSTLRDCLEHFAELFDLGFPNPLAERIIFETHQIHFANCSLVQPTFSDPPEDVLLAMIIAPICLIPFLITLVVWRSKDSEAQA

Compound | Emax | EC50
CC[C@H](C)[C@H](NC(=O)[C@H](CCC(N)=O)NC(=O)[C@H](Cc1c[nH]cn1)NC(=O)[C@H](C)NC(=O)[C@H](CC(C)C)NC(=O)[C@H](CCCCN)NC(=O)[C@H](CCC(N)=O)NC(=O)[C@@H](NC(=O)[C@@H](NC(=O)[C@@H]1CSSC[C@H](NC(=O)CNC(=O)CN)C(=O)N[C@@H](CCCNC(=N)N)C(=O)N[C@@H](Cc2ccccc2)C(=O)NCC(=O)N[C@@H]([C@@H](C)O)C(=O)N1)[C@@H](C)O)C(C)C)C(=O)N[C@@H](Cc1ccc(O)cc1)C(=O)N[C@@H](CCC(N)=O)C(=O)N[C@@H](Cc1ccccc1)C(=O)N[C@H](C(=O)N[C@@H](CC(=O)O)C(=O)NCCOCCOCCOCCOCCOCCC(=O)N[C@@H](C)C(=O)N1CCC[C@H]1C(=O)N[C@@H](CCCNC(=N)N)C(=O)N[C@@H](CO)C(=O)N[C@@H](CCCCN)C(=O)N[C@H](C(=O)N[C@@H](CO)C(=O)N1CCC[C@H]1C(=O)N[C@@H](CCC(N)=O)C(=O)NCC(=O)N[C@@H](Cc1ccc(O)cc1)C(N)=O)[C@@H](C)CC)[C@@H](C)O [Example 12, ((4R,7S,13S,16S,19R)-19-(2-(2-aminoacetamido)acetamido)-13-benzyl-16-(3-guanidinopropyl)-7-((R)-1-hydroxyethyl)-6,9,12,15,18-pentaoxo-1,2-dithia-5,8,11,14,17-pentaazacycloicosane-4-carbonyl)-L-threonyl-ADM(23-35)-(1-(λ^2-azaneyl)-3,6,9,12,15-pentaoxaoctadecan-18-oyl)-L-alanyl-ADM(43-52)] (H-GGCRFGTCTVQKLAHQIYQFTD[PEG5]APRSKISPQGY-NH2; disulfide 3-8) | 79 ± 5% | 0.431 µM
CC[C@H](C)[C@H](NC(=O)[C@H](CCC(N)=O)NC(=O)[C@H](Cc1c[nH]cn1)NC(=O)[C@H](C)NC(=O)[C@H](CC(C)C)NC(=O)[C@H](CCCCN)NC(=O)[C@H](CCC(N)=O)NC(=O)[C@@H](NC(=O)[C@@H](NC(=O)[C@@H]1CSSC[C@H](NC(=O)CNC(=O)CN)C(=O)N[C@@H](CCCNC(=N)N)C(=O)N[C@@H](Cc2ccccc2)C(=O)NCC(=O)N[C@@H]([C@@H](C)O)C(=O)N1)[C@@H](C)O)C(C)C)C(=O)N[C@@H](Cc1ccc(O)cc1)C(=O)N[C@@H](CCC(N)=O)C(=O)N[C@@H](Cc1ccccc1)C(=O)N[C@H](C(=O)NCCOCCOCCOCC(=O)N[C@@H](CC(=O)O)C(=O)N[C@@H](CC(N)=O)C(=O)N[C@H](C(=O)N[C@@H](C)C(=O)N1CCC[C@H]1C(=O)N[C@@H](CCCNC(=N)N)C(=O)N[C@@H](CO)C(=O)N[C@@H](CCCCN)C(=O)N[C@H](C(=O)N[C@@H](CO)C(=O)N1CCC[C@H]1C(=O)N[C@@H](CCC(N)=O)C(=O)NCC(=O)N[C@@H](Cc1ccc(O)cc1)C(N)=O)[C@@H](C)CC)C(C)C)[C@@H](C)O [Example 6, ((4R,7S,13S,16S,19R)-19-(2-(2-aminoacetamido)acetamido)-13-benzyl-16-(3-guanidinopropyl)-7-((R)-1-hydroxyethyl)-6,9,12,15,18-pentaoxo-1,2-dithia-5,8,11,14,17-pentaazacycloicosane-4-carbonyl)-L-threonyl-ADM(23-34)-(2-(2-(2-(2-(k2-azaneyl)ethoxy)ethoxy)ethoxy)acetyl)-L-aspartyl-ADM(40-52)] (H-GGCRFGTCTVQKLAHQIYQFT[AEEEA]DNVAPRSKISPQGY-NH2; disulfide 3-8) | 95 ± 7% | 0.021 µM
CC[C@H](C)[C@H](NC(=O)[C@H](CCC(N)=O)NC(=O)[C@H](Cc1c[nH]cn1)NC(=O)[C@H](C)NC(=O)[C@H](CC(C)C)NC(=O)[C@H](CCCCN)NC(=O)[C@H](CCC(N)=O)NC(=O)[C@@H](NC(=O)[C@@H](NC(=O)[C@@H]1CSSC[C@H](NC(=O)CNC(=O)[C@@H](N)CCCCNC(=O)CCCCCCCCCCCCCCCCC(=O)O)C(=O)N[C@@H](CCCNC(=N)N)C(=O)N[C@@H](Cc2ccccc2)C(=O)NCC(=O)N[C@@H]([C@@H](C)O)C(=O)N1)[C@@H](C)O)C(C)C)C(=O)N[C@@H](Cc1ccc(O)cc1)C(=O)N[C@@H](CCC(N)=O)C(=O)N[C@@H](Cc1ccccc1)C(=O)N[C@H](C(=O)NCCOCCOCCOCCC(=O)N[C@@H](CC(=O)O)C(=O)N[C@@H](CC(N)=O)C(=O)N[C@H](C(=O)N[C@@H](C)C(=O)N1CCC[C@H]1C(=O)N[C@H]1CCCCNC(=O)C[C@@H](C(=O)N2CCC[C@H]2C(=O)N[C@@H](CCC(N)=O)C(=O)NCC(=O)N[C@@H](Cc2ccc(O)cc2)C(N)=O)NC(=O)[C@H]([C@@H](C)CC)NC(=O)[C@H](CCCCN)NC(=O)[C@H](CO)NC1=O)C(C)C)[C@@H](C)O [Example 14] (H-K(C18 diacid)GCRFGTCTVQKLAHQIYQFT[PEG3]DNVAPKSKIDPQGY-NH2; disulfide 3-8; lactam 28-32) | 92 ± 5% | 0.0066 µM
CC[C@H](C)[C@H](NC(=O)[C@H](CCC(N)=O)NC(=O)[C@H](Cc1c[nH]cn1)NC(=O)[C@H](C)NC(=O)[C@H](CC(C)C)NC(=O)[C@H](CCCCN)NC(=O)[C@H](CCC(N)=O)NC(=O)[C@@H](NC(=O)[C@@H](NC(=O)[C@@H]1CSSC[C@H](NC(=O)CNC(=O)CN)C(=O)N[C@@H](CCCNC(=N)N)C(=O)N[C@@H](Cc2ccccc2)C(=O)NCC(=O)N[C@@H]([C@@H](C)O)C(=O)N1)[C@@H](C)O)C(C)C)C(=O)N[C@@H](Cc1ccc(O)cc1)C(=O)N[C@@H](CCC(N)=O)C(=O)N[C@@H](Cc1ccccc1)C(=O)N[C@H](C(=O)N[C@@H](CC(=O)O)C(=O)NCCOCCOCCOCCOCCC(=O)N[C@H](C(=O)N[C@@H](C)C(=O)N1CCC[C@H]1C(=O)N[C@@H](CCCNC(=N)N)C(=O)N[C@@H](CO)C(=O)N[C@@H](CCCCN)C(=O)N[C@H](C(=O)N[C@@H](CO)C(=O)N1CCC[C@H]1C(=O)N[C@@H](CCC(N)=O)C(=O)NCC(=O)N[C@@H](Cc1ccc(O)cc1)C(N)=O)[C@@H](C)CC)C(C)C)[C@@H](C)O [Example 10, ((4R,7S,13S,16S,19R)-19-(2-(2-aminoacetamido)acetamido)-13-benzyl-16-(3-guanidinopropyl)-7-((R)-1-hydroxyethyl)-6,9,12,15,18-pentaoxo-1,2-dithia-5,8,11,14,17-pentaazacycloicosane-4-carbonyl)-L-threonyl-ADM(23-35)-(1-(λ^2-azaneyl)-3,6,9,12-tetraoxapentadecan-15-oyl)-L-valyl-ADM(42-52)] (H-GGCRFGTCTVQKLAHQIYQFTD[PEG4]VAPRSKISPQGY-NH2; disulfide 3-8) | 77 ± 3% | 0.081 µM
